# Assays:
# α1 = assay: Receptor binding, [3H]prazosin, human cerebral cortex membranes (HCC); conditions: 22° C., 30 min
# Protocol: Tissue preparation: Membrane suspensions were prepared from human cerebral cortex ([…], for α1 receptors) obtained from the UCI Organ and Tissue Bank. Briefly, tissues (1 g) were homogenized in 25 mL of ice-cold 5 mM Tris, pH 7.4 with a Polytron homogenizer for 30 sec at setting #7, and centrifuged for
# 10-12 minutes at 300× g at 4° C. The supernatant was filtered through 2 layers of gauze and diluted 1:2 with 50 mM Tris-HCl buffer, pH 7.4, then centrifuged at 49,000× g for 20 minutes. The pellet fraction was washed 3 times (resuspended in Tris-HCl buffer and centrifuged for 20 minutes; at 49,000× g). The pellet was then stored at -80° C. until the binding assay.
# (§1) Binding Studies: The radioligands [^3 H]rauwolscine (specific activity 80 Ci/mmol) and [^3 H]prazosin (specific activity 76 Ci/mmol) were obtained from New England Nuclear, Boston, Mass. Frozen membrane pellet was resuspended in 25 mM glycine/glycine, pH 7.5 and incubated with radioligand under the following conditions: CHO-C10, CHO-RNG, CHO-C4-[^3 H]rauwolscine, 22° C., 30 minutes; RKC-[^3 H]rauwolscine, 0° C., 120 minutes; and, HCC-[^3 H]prazosin, 22° C., 30 minutes in a final volume of 500 ul. At the end of the incubation period, the samples were filtered through glass filters (Whatman GF/B) in a 96 well cell harvester and rapidly washed four times with 4 mL of iced-cold 50 mM Tris-HCl buffer. The filters were then oven dried and transferred to scintillation vials containing 10 mL of Beckman's Ready Protein® scintillation cocktail for counting. […] Protein concentrations were determined with a protein assay kit from Bio Rad. Binding isotherms, equilibrium dissociation and affinity constants were analyzed and determined by the non-linear least squares curve fitting programs EBDA (BioSoft) or AccuFit Competition/Saturation by Beckman.
# (§2) The radioligands [^3 H] rauwolscine (specific activity 80 Ci/mmol) and [^3 H] prazosin (specific activity 76 Ci/mmol) were obtained from New England Nuclear, Boston, Mass. Frozen membrane pellet was resuspended in 25 mM glycine/glycine, pH 7.4 and incubated with radioligand under the following conditions: CHO-C10, CHO-RNG, CHO-C4-[^3 H]rauwolscine, 22° C., 30 min.; and, HCC-[^3 H]prazowsin, 22° C., 30 minutes in a final volume of 500 ul. At the end of the incubation period, the samples were filtered through glass fiber filters (Whatman GF/B) in a 96 well cell harvester and rapidly washed four times which 4 mL of iced-cold 50 mM Tris-CHI buffer. The filters were then oven dried and transferred to scintillation vials containing 5 mL of Beckman's Ready Protein® scintillation cocktail for counting. […] Protein concentrations were determined with a protein assay kit from Bio lad. Binding isotherms, equilibrium dissociation and affinity constants were analyzed and determined by the non-linear least squares curve fitting programs AccuFit Competition/Saturation by Beckman.
# (§3) Representative compounds of the present invention were tested according to the procedures given above. […] The receptor binding studies and K1 are measures of the affinity of a compound for a particular receptor.
# I2B = assay: Receptor binding, I2B
# human α2A = target: T1, human α2A (Homo sapiens, UniProt P08913); assay: Receptor binding, [3H]rauwolscine, CHO-C10 cells expressing human α2A; conditions: CHO-C10, 22° C., 30 min
# T1 construct: expressed in transfected cells; host or cells: CHO cells (CHO-C10)
# T1 sequence (P08913 1-465): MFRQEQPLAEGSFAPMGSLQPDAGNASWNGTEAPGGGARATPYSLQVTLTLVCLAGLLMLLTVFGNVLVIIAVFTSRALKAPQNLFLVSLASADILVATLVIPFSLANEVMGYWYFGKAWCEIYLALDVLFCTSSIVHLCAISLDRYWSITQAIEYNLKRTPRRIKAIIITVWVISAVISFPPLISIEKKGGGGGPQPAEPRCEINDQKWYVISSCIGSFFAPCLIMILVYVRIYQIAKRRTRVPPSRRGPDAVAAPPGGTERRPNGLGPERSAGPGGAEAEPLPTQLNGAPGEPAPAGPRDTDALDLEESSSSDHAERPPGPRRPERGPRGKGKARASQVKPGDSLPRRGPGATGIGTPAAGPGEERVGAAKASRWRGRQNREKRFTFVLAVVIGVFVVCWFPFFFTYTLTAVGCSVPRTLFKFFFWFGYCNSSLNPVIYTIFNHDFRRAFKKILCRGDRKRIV
# Protocol: Cell preparation: Chinese hamster ovary (CHO) cells expressing the human α2A and human α2C (CHO-C10 and CHO-C4 respectively) receptors and CHO cells (CHO-RNG) expressing the rat α2B, adrenoceptor were grown to near confluence in Dulbecco's modified Eagle's medium supplemented with 10% fetal bovine serum using standard cell culture methods. Cells were harvested by scraping and placed into cold buffer of the following composition: 50 mM Tris-HCl, 5 mM EDTA, pH 7.4). […] The pellet fraction was washed (resuspended in Tris-HCl, pH 8 buffer and centrifuged for 15-20 minutes at 49,000× g) 2 times and stored at -100° until binding assay.
# as §1
# Cell Preparation: Chinese hamster ovary (CHO) cells expressing the human α2A (CHO-C10) and the rate α2B (CHO-RNG) […] were grown to near confluence in Dulbecco's modified Eagle's medium supplemented with 10% fetal bovine serum using standard cell culture methods. Cells were harvested by scraping and placed into cold buffer of the following composition: 50 mM Tris-HCl, 5 mM EDTA, pH 7.4). […] The pellet fraction was washed (resuspended in Tris-HCl, pH 8 buffer and centrifuged for 15-20 minutes at 49,000× g) 2 times and stored at […] until binding assay.
# as §2, §3
SMILES,Ki (α1) [nM],Ki (I2B) [nM],Ki (human α2A) [nM]
Cc1c(NC2=NCCN2)ccc2c1NCCO2 [Example 16],473,12100,1.2
Cc1c(NC2=NCCN2)ccc2c1OCCO2 [Example 13],129,1220,0.25
Cc1c(NC2=NCCN2)ccc2c1NCCN2 [Example 8],8720,10000,9.6
c1cc2c(cc1NC1=NCCN1)OCCO2 [Example 11],2400,2030,–
c1cc2c(cc1NC1=NCCN1)NCCN2 [Example 7],5100,10000,35
COc1ccc(NC2=NCCN2)c(C)c1OC [Example 12],1450,507,5.2
Cc1c(O)cccc1Nc1ncc[nH]1 [Example 20],11300,–,30
Cc1c(NC2=NCCN2)ccc2c1NC(=O)CO2 [Example 15],2260,–,17
CC1CNc2c(ccc(NC3=NCCN3)c2Br)N1 (centres unmarked) [Example 10],6610,3260,24
Cc1cccc(Nc2ncc[nH]2)c1C [Example 18],5210,13,52
Brc1c(NC2=NCCN2)ccc2c1NCCN2 [Example 9],1120,4590,6.1
O=C1COc2ccc(NC3=NCCN3)cc2N1 [Example 14],8990,6520,52
COc1c(C(C)(C)C)cc(C)c(Nc2ncc[nH]2)c1C [Example 22],4180,870,4.9
Nc1cc(Cl)c(NC2=NCCN2)c(Cl)c1 [Example 3],181,38600,2.9
Cc1ccccc1NC1=NCCN1 [Example 1],5030,–,8.9
